In EP0114563A1, “Cytostatically effective combination” (SCHERING AKTIENGESELLSCHAFT, priority 1982, dated 1984) one finds inhibition data, which are given here for 1 compound.

For this test, the system named is human leukemic cells. Kind of test: Inhibition of cell proliferation (growth kinetics by cell counting) in culture. Conditions: L-Dopa 10 µg/ml, read-out: inhibition in %, based on a control free of active agent. The source says: Every second day, the culture medium of each test batch was replaced by fresh medium and active agent.

Like-named read-outs stand apart in the source and are kept apart here.

In the case of `N[C@@H](Cc1ccc(O)c(O)c1)C(=O)O` [L-Dopa, 3-hydroxy-L-tyrosine], the inhibition – broadly, the change of the read-out against control, counted positive when it falls – at 10 µg/mL was determined as 18% (72 Hrs.) and 58% (144 Hrs.).
